Like-named read-outs stand apart in the source and are kept apart here.
Experiments:
[1] = tested on: TGF-β signaling (SBE-SEAP reporter) in MFB-F11 cells; format: cell-based, mouse; conditions: for TGF-β agonist activity: data of FIGS. 1A-1J; for Relative TGF-β activity, fold change compared with vehicle: cell reporter assay
Description: All compounds were tested twice, in duplicate, using the MFB-F11 cell line. 80 compounds were selected for further study based on induction of the reporter gene in any of the replicates. These compounds were tested again in MFB-F11 or C6-H4 cells, either alone or in the presence of 100 pg/ml of TGF-β1, to test for synergistic activities.

[2] = tested on: fibroblasts lacking Smad2, Smad3 or Smad4; assay: SBE reporter signaling in fibroblasts lacking elements of the TGF-β signaling pathway; format: cell-based; conditions: Smad4-lacking fibroblasts; FIG. 2D
From the text: To understand how the TGF-β signaling agonists function and identify molecular genetic targets in cells, fibroblasts lacking different elements of the TGF-β3 signaling pathway, including Smad2, Smad3, and Smad4, were used in combination with plasmids encoding different inhibitors of the TGF-β signaling pathway to study TGF-β agonists in different backgrounds. For reference, the canonical TGF-β signaling pathway is illustrated in FIG. 2A. The biological actions of TGF-β1 are mediated through interactions with the type 2 TGF beta receptor (TBR2) 2 and the type I TGF beta receptor (TBRI) 3. Betaglycan 4 may participate in the binding of TGF-β1. Receptor activation leads to the phosphorylation of Smad proteins, such as Smad 2/3 5 and Smad 4 6, which translocate to the nucleus 7 to bind to the Smad DNA-binding element (SBE) 8, present in numerous genes, in combination with transcription factors (TF) 9. Smad 7 10 is inhibitory with respect to Smad 2/3 5 phosphorylation. Alternative signaling involves p38 11 and the MAP kinase pathway. TAB1 12 activates TAK1 13, which activates p38 11.
Because Smad2 and Smad3 can substitute for each other, results with Smad2 or Smad3 knock-out fibroblasts were more difficult to interpret. Nonetheless, the synergistic effect of TGF-β1 and 11H was blocked in the absence of Smad2 (FIG. 2B) or Smad3 (not shown). In these assays, signaling is reported via SBE elements, which are specific elements that bind Smad proteins. Thus, the 11H compound must signal through this element. Without being limited to theory, it is believed that the 3A compound functions as a competitive agonist of Smad binding to the SBE, representing a novel target and mode of action.

[3] = tested on: TGF-β signaling in the brain; assay: SBE-luc mice after lipopolysaccharide (LPS) administration; format: in vivo, mouse
From the text: SBE-luc mice can also be used to monitor activation of TGF-β signaling in response to glial activation after lipopolysaccharide (LPS) administration.

[4] = tested on: primary hippocampal neurons from E16 mouse embryos; format: cell-based; conditions: Aβ oligomers inducing 50-70% cell death; 13A04 3 μM, TGF-β1 10 ng/ml; 24 hours
Description: (§1) FIG. 1H is a graph showing the relative amount of surviving 6-7 DIV hippocampal neurons of E16 mice following exposure to culture medium (CM) alone, 13A04 (3 μM), or CM containing Aβ at 2 or 5 μM with TGF-β1 (10 ng/ml) or 13A04 (3 μM). After 24 hours, cultures were fixed and surviving cells were counted. Data represent mean±SEM, n=3-7 fields counted per plate. All conditions were compared to Aβ using the Mann-Whitney test (* p<0.05, ** p<0.01). FIG. 1I is a graph showing the relative gene expression levels of the indicated TGF-β-responsive genes induced in MFB-F11 fibroblasts stimulated with TGF-β1 (yellow) or 13A04 (blue) for 24 h. mRNA was extracted, labeled and hybridized to gene expression arrays tailored for the TGF-β pathway.
Moreover, the small-molecule TGF-β agonist was not toxic at 3 μM and 10 μM (not shown).
Primary mixed neuronal cultures are exposed to Aβ oligomers and treated with compounds (0 to 10 μM concentration) and cell survival is measured using lactate dehydrogenase (LDH) release or by counting 4,6-diamidino-2-phenylindole (DAPI)-stained cells. […] Neuritic dystrophy in 21 DIV neurons can also be measured by quantifying the tortuosity of neurites as described by Ferreira et al.^70 and modified by others. […] Further incubation of these cells with the present compounds provides a sensitive assay for neuroprotection.

[5] = tested on: TGF-β-responsive genes in MFB-F11 fibroblasts; assay: Microarray of TGF-β pathway gene expression in tgfb1−/− fibroblasts; format: cell-based, mouse; conditions: 1, 5, 24 hours
Description: as §1
A microarray assay was used to identify changes in gene expression caused by stimulating tgfb1^−/− fibroblasts with TGF-β1 or 13A04. mRNA was harvested 1, 5, and 24 hours following stimulation of tgfb1^−/− fibroblasts with TGF-β1 (or control) and analyzed for differential expression of 128 genes related to TGF-β signaling, using a commercially available filter array (Superarray Bioscience Corp.; FIG. 1I). […]

[6] = tested on: TGF-β signaling (SBE-luc reporter) in brain; assay: Bioluminescence and tissue luciferase in SBE-luc reporter mice; format: in vivo, mouse; conditions: peripheral administration; FIG. 3E; indicates BBB passage
From the text: Transgenic mice harboring the SBE-luc reporter gene were generated and used to test the present compositions in vivo. These “reporter mice” mice express SBE-luc (i.e., “the transgene”) in all cells of the body.^1,54 Intraperitoneal injection of luciferin into SBE-luc mice produces bioluminescence generated by luciferase and photons penetrating the skull can be imaged using sensitive camera systems.^1,54
To determine whether 3A and its analogs are bioactive in vivo and able to penetrate the blood brain barrier (BBB), TGF-β1, 3A, 22B02, or 13A04 were injected into reporter mice i.p. or s.q. The animals were then sacrificed at the indicated times following injection. […] There was no obvious activation of the reporter in other organs.
Bioactivity data were confirmed by biochemical measurements of tissue luciferase in hippocampal homogenates (FIG. 3E).
Two-month old SBE-luciferase transgenic mice receive different concentrations of a test compound either s.q., i.p., or orally by gavage. […] Following administration of the test or control compounds, mice are injected with luciferin i.p. At, e.g., 2, 8, and 16 hours following injection of luciferin, the mice are imaged to detect bioluminescence as described above. Brains may be harvested 16 hours following test compound injection, and may be divided sagittally. […]

Row | Compound | Relative TGF-β activity, fold change compared with vehicle ([1]; 3 μM) | Relative TGF-β activity, fold change compared with vehicle ([1]; 10 μM) | Relative TGF-β activity, fold change compared with vehicle ([1]; 30 μM) | Relative TGF-β activity, fold change compared with vehicle ([1]; 100 μM) | further results
1 | CCOC(=O)CNC(=O)Nc1ccc(N2CCN(c3ccccc3OC)CC2)c(C(=O)NC(C)c2ccccc2)c1 (stereo not drawn) [Compound 5E, ethyl 2-(3-(4-(4-(2-methoxyphenyl)piperazin-1-yl)-3-(1-phenylethylcarbamoyl)phenyl)ureido)acetate] |  |  |  |  | TGF-β agonist activity [1]: TGF-β-agonists
2 | CCOC(=O)CCC(=O)N(CC(=O)N(CCc1c[nH]c2ccccc12)Cc1ccc(N(C)C)cc1)C(C)C [Compound 23D05] | 0.8 fold | 1.1 fold | 1.7 fold | 4.7 fold | 
3 | COCCCN(CC(=O)N(CCc1c[nH]c2ccccc12)Cc1ccc(F)cc1)C(=O)c1ccc(C(F)(F)F)cc1 [Compound 22E02] | 1.4 fold | 4.7 fold | 8.6 fold | 9.1 fold | 
4 | CC(C)N(CC(=O)N(CCc1c[nH]c2ccccc12)Cc1ccc(Cl)c(Cl)c1)C(=O)CC(C)(C)C [Compound 37C02] | 0.7 fold | 1.0 fold | 1.4 fold | 3.1 fold | 
5 | COCCN(CC(=O)N(CCc1c[nH]c2ccccc12)Cc1ccccc1)C(=O)Cc1cccs1 [Compound 3A, N-(2-(1H-indol-3-yl)ethyl)-N-benzyl-2-(N-(2-methoxyethyl)-2-(thiophen-2-yl)acetamido)acetamide] | 1.7 fold | 2.9 fold | 5.2 fold | 11.4 fold | TGF-β agonist activity [1]: TGF-β-agonists; Signaling in the absence of Smad4 [2]: not affected (or was even stronger)
6 | COCCN(CC(=O)N(CCc1c[nH]c2ccccc12)Cc1ccc(F)cc1)C(=O)c1ccc(Cl)c([N+](=O)[O-])c1 [Compound 22B05] | 1.1 fold | 1.2 fold | 1.7 fold | 2.8 fold | 
7 | Cc1ccc(C(=O)N(CC(=O)N(CCc2c[nH]c3ccccc23)Cc2ccc(C(F)(F)F)cc2)C(C)C)cc1[N+](=O)[O-] [Compound 21F11] | 0.8 fold | 1.6 fold | 2.7 fold | 6.5 fold | 
8 | CC(C)(CCl)C(=O)N(CC(=O)N(CCc1c[nH]c2ccccc12)Cc1ccccc1)C1CC1 [Compound 44A04] | 1.2 fold | 2.3 fold | 2.7 fold | 2.8 fold | 
9 | CC(C(=O)O)c1ccc(-c2ccccc2)c(F)c1 (stereo not drawn) [flurbiprofen] |  |  |  |  | TGF-β signaling in the brain after LPS (bioluminescence) ([3]; FIG. 4E): strongly reduced; Microglial activation after LPS ([3]; data not shown): strongly reduced
10 | COCCCN(CC(=O)N(CCc1c[nH]c2ccccc12)Cc1ccc(F)cc1)C(=O)c1ccccc1Cl [Compound 22D03] | 1.4 fold | 3.7 fold | 8.3 fold | 8.8 fold | 
11 | COCCN(CC(=O)N(CCc1c[nH]c2ccccc12)Cc1ccc(OC)c(OC)c1)C(=O)C(Cl)Cl [Compound 24D04] | 1.2 fold | 1.1 fold | 1.5 fold | 2.7 fold | 
12 | COCCCN(CC(=O)N(CCc1c[nH]c2ccccc12)Cc1ccc(C(F)(F)F)cc1)C(=O)C1CC1c1ccccc1 (stereo not drawn) [Compound 21A08] | 1.1 fold | 1.5 fold | 1.9 fold | 2.7 fold | 
13 | CC(C)N(CC(=O)N(CCc1c[nH]c2ccccc12)Cc1ccc(N(C)C)cc1)C(=O)C(Cl)Cl [Compound 23B08] | 1.1 fold | 1.8 fold | 3.1 fold | 4.5 fold | 
14 | TGF-β1: recombinant transforming growth factor-β1, reference activator of the TGF-β signaling pathway |  |  |  |  | Protection of neurons against Aβ toxicity (survival) [4]: consistently protected neurons and increased survival; Expression of TGF-β signaling genes (Fos, Jun, Myc, Smad1, Smad2, Smad3, Interleukin-6) [5]: induced; Signaling in the absence of Smad4 [2]: blocked or strongly inhibited; TGF-β signaling in vivo, tissue luciferase in hippocampal homogenates [6]: activated TGF-β signaling in vivo
15 | COCCN(CC(=O)N(CCc1c[nH]c2ccccc12)Cc1ccc(F)cc1)C(=O)C(C)Cl (stereo not drawn) [Compound 13F03] | 1.3 fold | 1.9 fold | 3.8 fold | 9.1 fold | 

— patent US8410138B2, “Compounds for activating TGF-beta signaling” (The Board of Trustees of the Leland Stanford Junior …, priority 2007, dated 2013)
